Experimental data reported in ChEMBL document CHEMBL1201862, “PubChem BioAssay data set” (2004).
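Five concentrations, 48 hours, 96-well plates. GI50 marks 50% less growth.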 Activity calls are given as the source filed them. Rule as the data show it: active = GI50 up to about 1.1 µM and inactive = higher.

Legend:
Test in all cases: NCI tumour cell line growth inhibition, 48 h
[1] = system: RXF 393
[2] = system: DU-145
[3] = system: SNB-19
[4] = system: A549
[5] = system: SN12C
[6] = system: EKVX
[7] = system: OVCAR-5
[8] = system: 786-0
[9] = system: HOP-62
[10] = system: HT-29
[11] = system: UACC-257
[12] = system: MDA-N
[13] = system: SK-MEL-2
[14] = system: OVCAR-8
[15] = system: M14
[16] = system: NCI/ADR-RES
[17] = system: SK-MEL-5
[18] = system: SF-295
[19] = system: U-251
[20] = system: Hs-578T

Measured: GI50

CC(=O)OCC1OC(NC(=S)Nn2c(-c3ccccc3)nc3ccccc3c2=O)C(OC(C)=O)C(OC(C)=O)C1OC(C)=O (stereo not given)
inactive: [1] > 100 µM | [2] > 100 µM | [3] > 100 µM | [4] > 100 µM | [5] 93.1 µM | [6] > 100 µM | [7] > 100 µM | [8] > 100 µM | [9] 97.7 µM | [10] > 100 µM | [11] > 100 µM | [12] > 100 µM | [13] 25.9 µM | [14] > 100 µM | [15] 62.7 µM | [16] > 100 µM | [17] 35.8 µM | [18] > 100 µM | [19] > 100 µM | [20] 78.7 µM

O=C1N/C(=N/N=C/C(O)C(O)C(O)C(O)CO)N/C1=C\c1ccco1 (stereo not given)
inactive: [1] > 100 µM | [2] > 100 µM | [3] > 100 µM | [4] > 100 µM | [5] > 100 µM | [6] > 100 µM | [7] > 100 µM | [8] > 100 µM | [9] > 100 µM | [10] > 100 µM | [11] > 100 µM | [12] > 100 µM | [13] 93.8 µM | [14] > 100 µM | [15] > 100 µM | [16] > 100 µM | [17] > 100 µM | [18] > 100 µM | [19] 89.7 µM | [20] > 100 µM

CC1(C)OC(=O)C(C)(C)OC1=O
inactive: [1] > 100 µM | [2] > 100 µM | [3] > 100 µM | [4] > 100 µM | [5] > 100 µM | [6] > 100 µM | [7] > 100 µM | [8] > 100 µM | [9] > 100 µM | [10] > 100 µM | [11] > 100 µM | [12] > 100 µM | [13] > 100 µM | [14] > 100 µM | [15] > 100 µM | [16] > 100 µM | [17] > 100 µM | [18] > 100 µM | [19] > 100 µM | [20] > 100 µM

COc1ccc(/N=C\c2ccc(N(CCC#N)CCC#N)cc2)cc1
inactive: [1] > 78.5 µM | [2] > 100 µM | [3] 90.2 µM | [4] 47.9 µM | [5] > 89.3 µM | [6] > 100 µM | [7] 55.5 µM | [8] 52.2 µM | [9] > 56.2 µM | [10] > 67.6 µM | [11] > 100 µM | [12] 63.8 µM | [13] > 67.1 µM | [14] 74.6 µM | [15] 28.1 µM | [16] > 100 µM | [17] 40.4 µM | [18] 54.1 µM | [19] > 83.2 µM | [20] > 100 µM

C=CCN1C[C@H](C)N([C@@H](c2ccc(C(=O)N3CCCCC3)cc2)c2cccc(OC)c2)C[C@H]1C
inactive: [1] 48 µM | [2] 80.5 µM | [3] 50.5 µM | [4] 30.5 µM | [5] 43 µM | [6] 44.4 µM | [7] 58.1 µM | [8] 37.9 µM | [9] > 100 µM | [10] 24.7 µM | [11] 21.2 µM | [12] 34.5 µM | [13] 22.2 µM | [14] 43.7 µM | [15] 17.4 µM | [16] 32.4 µM | [17] 19.1 µM | [18] 45.2 µM | [19] 32.1 µM | [20] 86.7 µM

CCOC(=O)c1cn2c(n1)sc1c(Cl)c(Cl)ccc12
inactive: [1] 23.8 µM | [2] 18.1 µM | [3] 25.3 µM | [4] 15.1 µM | [5] 3.45 µM | [6] 31 µM | [7] 30.2 µM | [8] 7.66 µM | [9] 15.5 µM | [10] 12 µM | [11] 28.2 µM | [12] 1.56 µM | [13] 27.4 µM | [14] 15.9 µM | [15] 9.38 µM | [16] 8.38 µM | [17] 6.7 µM | [18] 22.9 µM | [19] 11 µM | [20] 5.33 µM

COC1=CC(=O)c2c(O)c3c(c(O)c2C1=O)C[C@](C)(O)C[C@@H]3O
inactive: [1] 5.3 µM | [2] 4.11 µM | [3] 4.92 µM | [4] 2.93 µM | [5] 3.63 µM | [6] 8.04 µM | [7] 12.7 µM | [8] 7.76 µM | [9] 8.45 µM | [10] 2.72 µM | [11] 1.99 µM | [12] 1.88 µM | [13] 3.35 µM | [14] 4.07 µM | [15] 2.6 µM | [16] 3.78 µM | [17] 1.33 µM | [18] 3.51 µM | [19] 4.69 µM | [20] 18.2 µM

CCOC(=O)NC(C(=O)OCC)(N1CCN(c2cc3c(cc2F)c(=O)c(C(=O)O)cn3CC)CC1)C(F)(F)F (stereo not given)
inactive: [1] > 100 µM | [2] > 100 µM | [3] > 100 µM | [4] > 100 µM | [5] > 100 µM | [6] 13.2 µM | [7] > 100 µM | [8] > 100 µM | [9] > 100 µM | [10] > 100 µM | [11] > 100 µM | [12] > 100 µM | [13] > 100 µM | [14] 6.1 µM | [15] > 100 µM | [16] > 100 µM | [17] > 100 µM | [18] > 100 µM | [19] 58.1 µM | [20] > 100 µM

NCCCN1c2ccccc2Sc2ccc(Cl)cc21
inactive: [1] > 7.28 µM | [2] > 10 µM | [3] > 8.45 µM | [4] 4.59 µM | [5] 6 µM | [6] > 7.36 µM | [7] > 5.28 µM | [8] 3.24 µM | [9] > 10 µM | [10] 2.55 µM | [11] > 6.19 µM | [12] 3.69 µM | [13] > 6.21 µM | [14] 5.7 µM | [15] 1.73 µM | [16] > 5.4 µM | [17] > 4.02 µM | [18] > 5.83 µM | [19] 5.38 µM | [20] 5.01 µM

CC(C)CCC[C@@H](C)[C@H]1CCC2C3CC=C4C[C@@H](Oc5c6ccccc6nc6ccccc56)CCC4C3CCC21 (stereo not given in full)
inactive: [1] > 50 µM | [2] > 50 µM | [3] > 50 µM | [4] > 50 µM | [5] > 50 µM | [6] > 50 µM | [7] > 50 µM | [8] > 50 µM | [9] > 50 µM | [10] > 50 µM | [11] > 50 µM | [12] > 50 µM | [13] > 50 µM | [14] > 50 µM | [15] > 50 µM | [16] > 50 µM | [17] > 50 µM | [18] > 50 µM | [19] > 50 µM | [20] > 50 µM
